The record followed here is publication PMC10043345, “Discovery of BAR502, as potent steroidal antagonist of leukemia inhibitory factor receptor for the treatment of pancreatic adenocarcinoma” (Frontiers in Oncology, 2023).

“Also recorded” adds a separate entry of the source.

One test deals with T1, LIF/LIFR complex (Homo sapiens, UniProt P42702).
T1 construct: purchased Sino Biological (LIFR); R&D Systems (LIF)
T1 sequence (P42702 45-833 limits assumed): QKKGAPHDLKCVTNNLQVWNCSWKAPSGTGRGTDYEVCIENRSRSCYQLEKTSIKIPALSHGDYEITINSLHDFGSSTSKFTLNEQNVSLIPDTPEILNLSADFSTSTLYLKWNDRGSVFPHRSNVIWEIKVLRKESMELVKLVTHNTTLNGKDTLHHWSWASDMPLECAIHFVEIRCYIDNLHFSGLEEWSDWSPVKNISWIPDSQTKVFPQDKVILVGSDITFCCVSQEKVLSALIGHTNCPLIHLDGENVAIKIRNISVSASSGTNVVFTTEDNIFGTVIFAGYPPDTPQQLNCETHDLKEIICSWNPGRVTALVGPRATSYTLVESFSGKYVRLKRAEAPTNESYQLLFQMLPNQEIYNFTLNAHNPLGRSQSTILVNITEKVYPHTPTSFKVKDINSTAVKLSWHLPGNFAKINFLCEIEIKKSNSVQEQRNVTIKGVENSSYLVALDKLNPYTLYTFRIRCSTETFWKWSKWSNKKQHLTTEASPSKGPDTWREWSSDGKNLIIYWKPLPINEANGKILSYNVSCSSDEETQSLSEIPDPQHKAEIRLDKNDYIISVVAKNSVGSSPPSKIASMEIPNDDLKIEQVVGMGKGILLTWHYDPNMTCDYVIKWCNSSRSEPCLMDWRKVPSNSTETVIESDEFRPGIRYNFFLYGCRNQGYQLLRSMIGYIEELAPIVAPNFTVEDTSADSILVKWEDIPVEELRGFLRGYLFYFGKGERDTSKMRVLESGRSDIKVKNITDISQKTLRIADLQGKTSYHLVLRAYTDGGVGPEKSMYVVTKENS
The test is described as follows: Alpha Screen inhibition of LIFR/LIF binding (cell-free). Particulars: for effect on LIF/LIFR complex formation (LIFR antagonism), in words: cell-free Alpha Screen; for IC50: cell-free, LIFR 4.5 nM, biotinylated LIF 9 nM, read-out: LIFR IC50 AlphaScreen (inhibition of LIFR/LIF binding). How it is done: Recombinant human LIFR (His Tag) and biotinylated recombinant human LIF were purchased from Sino Biologicals (Sino Biological Europe GmbH, Dusseldorf, Germany) and R&D Systems (Abingdon, UK), respectively, and both were reconstituted as required by the manufacturer. […] The assay was carried out in white, low-volume, 384-well AlphaPlates (PerkinElmer, Waltham, MA, USA) using a final volume of 25 µL and an assay buffer containing 25 mM Hepes (pH 7.4), 100 mM NaCl, and 0.005% Kathon. The concentration of DMSO in each well was maintained at 5%. […] Then, LIF was added (biotinylated, final concentration 9 nM), and the samples were incubated for 15 min prior to adding His-Tag acceptor beads (final concentration 20 ng/µL) for 30 min. Then, streptavidin donor beads were added (final concentration 20 ng/µL), and the plate was incubated in the dark for 2 h and then read in an EnSpire Alpha multimode plate reader (PerkinElmer, Waltham, MA, USA).
For orientation: Bead proximity is the source of the signal in Alpha formats.

A further test relates to MIA PaCa-2 cells. As to the kind of experiment: Scratch wound healing assay. The format is cell-based, human. Particulars: LIF 10 ng/mL alone; 0, 24, 48 h. How it is done: MIA PaCa-2 cells were seeded in DMEM complete medium at […] cells/well into 24-well plate and used at 70-80% confluence rate. The assay was performed as previously described ([20]), particularly on the day 1, the cell monolayers were gently scraped vertically with a new 0.2 mL pipette tip across the centre of the well. After scratching, the well was gently washed twice with PBS (Euroclone, Milan, Italy) to remove the detached cells and cell debris and finally fresh medium containing LIF (10 ng/mL) alone or in combination with BAR502 (10 µM) or EC359 (25 nM) was added into each well. Immediately after scratch creation, the 24-plate was placed under a phase-contrast microscope and the first image of the scratch acquired (T0) with using a OPTIKAM Pro Cool 5 – 4083.CL5 camera. Cells were grown for additional 48 h and images taken at 24h (T1) and 48 h (T2). The gap distance between scarps borders was quantified by assessing that area between the two margins of the scratches. All experiments were performed in triplicate.

With `C[C@H](CCC(=O)O)[C@H]1CC[C@H]2[C@@H]3[C@H](O)C[C@@H]4C[C@H](O)CC[C@]4(C)[C@H]3CC[C@]12C` [CDCA, Chenodeoxycholic acid], at LIF/LIFR complex, the “effect on LIF/LIFR complex formation (LIFR antagonism), in words” value is “slight, thought significant, inhibitory effect; also recorded: weak LIFR antagonists” and the IC50 was 48 µM.
For the molecule `C[C@H](CCC(=O)O)[C@H]1CC[C@H]2[C@@H]3CC[C@@H]4C[C@H](O)CC[C@]4(C)[C@H]3CC[C@]12C` [LCA, Lithocholic acid], on LIF/LIFR complex, the “effect on LIF/LIFR complex formation (LIFR antagonism), in words” value is recorded as “slight, thought significant, inhibitory effect; also recorded: weak LIFR antagonists” and the IC50 was found to be 48.3 µM.
With Leukemia Inhibitory factor [LIF], in the test with MIA PaCa-2 cells, the “reduction of the scratch area (wound closure)” value is “≈ 16%”.
